# Assay results published in PubChem BioAssay (NCI).
# Values joined by “and” are separate entries in the source; they are usually repeats but may differ in a detail not shown here. Equal entries are not always repeated.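 Method: 48-hour compound exposure of cells in 96-well plates, five concentrations, linear interpolation of endpoints. GI50 marks 50% less growth. TGI: concentration producing complete growth inhibition.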
# Tests used:
# Test in all cases: NCI anticancer screen, dose series, 48 h
# DMS 114 small cell lung = system: DMS 114 small cell lung
# MOLT-4 leukemia = system: MOLT-4 leukemia
# A549 NSCLC = system: A549 NSCLC
# NCI-H23 lung = system: NCI-H23 lung
# A498 renal = system: A498 renal
# DMS 273 small cell lung = system: DMS 273 small cell lung
# OVCAR-8 ovarian = system: OVCAR-8 ovarian
# KM20L2 colon = system: KM20L2 colon
# EKVX NSCLC = system: EKVX NSCLC
# PC-3 prostate = system: PC-3 prostate
SMILES,TGI (DMS 114 small cell lung),TGI (MOLT-4 leukemia),TGI (A549 NSCLC),TGI (NCI-H23 lung),TGI (A498 renal),TGI (DMS 273 small cell lung),TGI (OVCAR-8 ovarian),TGI (KM20L2 colon),TGI (EKVX NSCLC),TGI (PC-3 prostate),GI50 (DMS 114 small cell lung),GI50 (MOLT-4 leukemia),GI50 (PC-3 prostate),GI50 (A549 NSCLC),GI50 (NCI-H23 lung),GI50 (A498 renal),GI50 (DMS 273 small cell lung),GI50 (OVCAR-8 ovarian),GI50 (KM20L2 colon),GI50 (EKVX NSCLC)
COc1ccc(/C=C\c2cc(OC)c(OC(C)=O)c(OC)c2)cc1,61.7 µM,38.6 µM,78 µM,63.4 µM,45 µM,> 100 µM,76.7 µM,> 100 µM,> 100 µM,–,–,–,–,–,–,–,–,–,–,–
O=c1c2ccc(Br)cc2nc(-c2ccccc2)n1NC1OC(CO)C(O)C(O)C1O (centres undefined),> 100 µM,> 100 µM,> 100 µM,> 100 µM,> 100 µM,> 100 µM,> 100 µM,> 100 µM,> 100 µM,–,–,–,–,–,–,–,–,–,–,–
O=C(NCCOCCO)c1ccc(O)cc1,> 100 µM,> 100 µM,> 100 µM,> 100 µM,> 100 µM,> 100 µM,> 100 µM,> 100 µM,42.9 µM,–,–,–,–,–,–,–,–,–,–,–
Cc1cc2c(C=O)[nH]nc2c(C#N)c1C,99.3 µM,> 100 µM,> 100 µM,> 100 µM,> 100 µM,> 100 µM,> 100 µM,> 100 µM,> 100 µM,–,–,–,–,–,–,–,–,–,–,–
CCC1(O)CC(c2ccccc2)N(C)C(c2ccccc2)C1 (centres undefined),> 100 µM,> 100 µM,> 100 µM,> 100 µM,> 100 µM,> 100 µM,> 100 µM,> 100 µM,> 100 µM,–,–,–,–,–,–,–,–,–,–,–
CCOC(=O)/C(C#N)=C/c1[nH]c(C)c(C)c1C,> 100 µM,> 100 µM,> 100 µM,> 100 µM,> 100 µM,> 100 µM,> 100 µM,> 100 µM,> 100 µM,–,–,–,–,–,–,–,–,–,–,–
CCN(CC)[C@@H]1c2cc3c(cc2C(c2cc(OC)c(O)c(OC)c2)C2C(=O)CO[C@@H]21)OCO3 (some centres undefined),> 100 µM,> 100 µM,> 100 µM,> 100 µM,> 100 µM,> 100 µM,> 100 µM,> 100 µM,> 100 µM,–,–,–,–,–,–,–,–,–,–,–
CC(=O)c1ccc(-c2ccc(C(C)=O)s2)s1,2.76 µM,> 100 µM,> 100 µM,> 100 µM,4.16 µM,> 100 µM,> 100 µM,> 100 µM,> 100 µM,–,–,–,–,–,–,–,–,–,–,–
C[C@]12CC[C@H](O)CC1CCC[C@@H]2O (some centres undefined),> 100 µM,> 100 µM,> 100 µM,> 100 µM,> 100 µM,> 100 µM,> 100 µM,–,> 100 µM,–,–,–,–,–,–,–,–,–,–,–
C=C1[C@@H]2CCC(C)(C)[C@H]1CCC(=O)[C@@H]2C(=O)OC,> 100 µM,> 100 µM,> 100 µM,> 100 µM,> 100 µM,> 100 µM,> 100 µM,> 100 µM,> 100 µM,–,–,–,–,–,–,–,–,–,–,–
OCC1C2C=CC(O2)[C@H]1CO (some centres undefined),> 100 µM,> 100 µM,> 100 µM,–,> 100 µM,> 100 µM,> 100 µM,> 100 µM,> 100 µM,–,–,–,–,–,–,–,–,–,–,–
CC12CCC(C)(c3cc(O)c(O)cc31)c1cc(O)c(O)cc12,31.1 µM,42.5 µM,94.4 µM,75.5 µM,–,37.5 µM,57.9 µM,39.2 µM,56.3 µM,–,–,–,–,–,–,–,–,–,–,–
COC(=O)C1=CCS(=O)(=O)C1,> 100 µM,> 100 µM,> 100 µM,> 100 µM,> 100 µM,–,> 100 µM,> 100 µM,> 100 µM,–,–,–,–,–,–,–,–,–,–,–
NC1=C(O)/C(=N/NS(=O)(=O)c2ccccc2)C(c2cccc(Cl)c2)O1 (centres undefined),42.1 µM,19.1 µM,> 100 µM,73.5 µM,> 100 µM,> 100 µM,> 67.8 µM,> 85.6 µM,> 100 µM,54.2 µM,–,–,–,–,–,–,–,–,–,–
CC(=O)Oc1cc(OC(C)=O)c(OC(C)=O)c2c1CC1C(=O)C3(CCc4ccccc43)C(=O)C1C2 (centres undefined),29.4 µM,–,44.6 µM,40.2 µM,–,34.9 µM,36.7 µM,48.3 µM,37.6 µM,–,–,–,–,–,–,–,–,–,–,–
NCCCSCC(=O)O,> 100 µM,> 100 µM,> 100 µM,> 100 µM,–,> 100 µM,> 100 µM,> 100 µM,> 100 µM,–,–,–,–,–,–,–,–,–,–,–
CC(=O)NC1C(OCc2ccccc2)OC(COC(=O)CCCCCCCCCCNC(=O)CCNc2ccc([N+](=O)[O-])c3[nH]c4ccc(O)cc4c(=O)c23)C(O)C1OC(C)C(=O)N[C@H](C(=O)N[C@H](CCC(=O)O)C(N)=O)C(C)C (some centres undefined),> 100 µM,> 100 µM,> 100 µM,> 100 µM,> 100 µM,> 100 µM,> 100 µM,> 100 µM,> 100 µM,–,–,–,–,–,–,–,–,–,–,–
CCn1cc(C(=O)O)c(=O)c2cc(F)c(N3CCNCC3)nc21,> 100 µM,> 100 µM,> 100 µM,> 100 µM,> 100 µM,> 100 µM,> 100 µM,–,> 100 µM,–,–,–,–,–,–,–,–,–,–,–
N[C@@H](Cc1ccc(N(CCCl)CCCl)cc1)C(=O)O,29.1 µM and 86.4 µM,20.6 µM and 24.5 µM and 52.6 µM,> 100 µM and > 90.2 µM and 186 µM,> 100 µM and 45.5 µM and 84.7 µM,> 100 µM and > 78.2 µM and 177 µM,33.6 µM and 68.3 µM,> 100 µM and 50.9 µM and 110 µM,> 31.6 µM and 193 µM,> 100 µM and 58.3 µM and 128 µM,> 100 µM and 129 µM,13 µM,3.43 µM and 1.45 µM,32.5 µM,23.9 µM and 16.7 µM,20.6 µM and 12.5 µM,33.2 µM and 49.3 µM,6.97 µM,27.7 µM and 19.7 µM,14 µM,51.3 µM and 37.5 µM and 52 µM

SMILES,TGI (DMS 114 small cell lung),TGI (MOLT-4 leukemia),TGI (A549 NSCLC),TGI (NCI-H23 lung),TGI (A498 renal),TGI (DMS 273 small cell lung),TGI (OVCAR-8 ovarian),TGI (KM20L2 colon),TGI (EKVX NSCLC),TGI (PC-3 prostate),GI50 (DMS 114 small cell lung),GI50 (MOLT-4 leukemia),GI50 (PC-3 prostate),GI50 (A549 NSCLC),GI50 (NCI-H23 lung),GI50 (A498 renal),GI50 (DMS 273 small cell lung),GI50 (OVCAR-8 ovarian),GI50 (KM20L2 colon),GI50 (EKVX NSCLC)
COc1ccc(/C=C2\CCC(CN(C)C)C2=O)cc1 (centres undefined),21.6 µM,6.85 µM,30.6 µM,18.3 µM,28.9 µM,–,12.1 µM,36.8 µM,37.5 µM,19.6 µM,–,–,–,–,–,–,–,–,–,–
O=C(c1ccccc1)C(c1ccccc1)C1(O)C(=O)Nc2ccc(Br)cc21 (centres undefined),50.5 µM,> 100 µM,> 100 µM,> 100 µM,> 100 µM,> 100 µM,> 100 µM,> 100 µM,> 100 µM,–,–,–,–,–,–,–,–,–,–,–
Cc1ccc(Sc2cc([N+](=O)[O-])cc(Sc3ccc(C)cc3)c2Sc2ccc(C)cc2)cc1,> 100 µM,> 100 µM,> 100 µM,–,> 100 µM,> 100 µM,> 100 µM,> 100 µM,> 100 µM,–,–,–,–,–,–,–,–,–,–,–
O=C1CCC(=O)C12CCc1ccccc12,> 100 µM,–,> 100 µM,> 100 µM,–,> 100 µM,> 100 µM,> 100 µM,> 100 µM,–,–,–,–,–,–,–,–,–,–,–
OC1OC2COC(c3ccccc3)OC2C(O)C1O (centres undefined),> 100 µM,> 100 µM,> 100 µM,> 100 µM,> 100 µM,> 100 µM,> 100 µM,> 100 µM,> 100 µM,–,–,–,–,–,–,–,–,–,–,–
O=C1C2Cc3ccccc3CN2C(=O)N1CCN1CCOCC1 (centres undefined),> 100 µM,> 100 µM,> 100 µM,> 100 µM,> 100 µM,> 100 µM,> 100 µM,> 100 µM,–,–,–,–,–,–,–,–,–,–,–,–
Nc1c(-c2ccc(-c3c(N)[n+]([O-])c4ccccc4[n+]3[O-])cc2)[n+]([O-])c2ccccc2[n+]1[O-],16.3 µM,> 100 µM,51.9 µM,21.1 µM,35.5 µM,31.7 µM,> 100 µM,–,79.9 µM,–,–,–,–,–,–,–,–,–,–,–
COc1ccc2c(c1)[n+](=O)c(C(=O)C/C(=N\NC(=O)C[N+](C)(C)C)C(=O)Nc1cc(Cl)ccc1Cl)c(C)n2O,–,> 100 µM,> 100 µM,> 100 µM,> 100 µM,> 100 µM,> 100 µM,–,> 100 µM,–,–,–,–,–,–,–,–,–,–,–
CCOc1ccc(-n2cc(-c3ccc(N(C)C)cc3)[n+]3c2CCCCC3)cc1,–,26.5 µM,> 100 µM,> 43 µM,8.44 µM,–,> 100 µM,–,> 100 µM,> 100 µM,–,1 µM,0.277 µM,1.88 µM,0.0935 µM,1.22 µM,–,1.34 µM,–,0.244 µM
O=C1OC(/C=C/c2ccccc2)C(=O)C1=O (centres undefined),–,> 100 µM,> 100 µM,> 100 µM,> 100 µM,> 100 µM,–,> 100 µM,> 100 µM,–,–,–,–,–,–,–,–,–,–,–
COc1cc2c(cc1OC)-c1c(c3ccc([N+](=O)[O-])cc3c(=O)n1CCCBr)C2=O,–,> 100 µM,> 100 µM,67.5 µM,> 100 µM,–,> 100 µM,–,> 100 µM,> 100 µM,–,0.461 µM,59 µM,28.9 µM,3.32 µM,43.6 µM,–,38.5 µM,–,> 100 µM
O=c1cc(/C=C/c2ccccc2)c2ccc(O/C(=C\c3ccccc3)c3nc4ccccc4c(=O)o3)cc2o1,71.7 µM,74.3 µM,> 100 µM,28.7 µM,> 100 µM,> 100 µM,> 100 µM,> 100 µM,> 100 µM,–,–,–,–,–,–,–,–,–,–,–
O=P1(NCCCl)OCCC(OO)N1CCCl (centres undefined),> 100 µM,> 83.4 µM,> 100 µM,> 84.8 µM,> 93.3 µM,> 100 µM,> 100 µM,> 100 µM,> 100 µM,> 100 µM,–,–,–,–,–,–,–,–,–,–
Cn1c(=O)c2nc3sc4ccccc4c(=N)n3c2n(C)c1=O,> 100 µM,> 100 µM,> 100 µM,> 100 µM,> 100 µM,> 100 µM,> 100 µM,–,> 100 µM,–,–,–,–,–,–,–,–,–,–,–
O=C1OC(=O)C2C1C1(c3ccccc3)OC2(c2ccccc2)c2c(Br)c(Br)c(Br)c(Br)c21 (centres undefined),> 100 µM,> 100 µM,> 100 µM,> 100 µM,> 100 µM,> 100 µM,> 100 µM,> 100 µM,> 100 µM,–,–,–,–,–,–,–,–,–,–,–
Fc1cccc(C2SCc3nc4ccccc4n32)c1 (centres undefined),> 100 µM,> 100 µM,> 100 µM,> 100 µM,–,> 100 µM,> 100 µM,–,> 100 µM,–,–,–,–,–,–,–,–,–,–,–
CC1(C)OC(=O)C(c2ccsc2)C(=O)O1,> 100 µM,> 100 µM,> 100 µM,> 100 µM,–,> 100 µM,> 100 µM,> 100 µM,> 100 µM,–,–,–,–,–,–,–,–,–,–,–
COc1nc(C(Cl)(Cl)Cl)c(Cl)c(OC)c1Cl,45.9 µM and 61.6 µM,> 67.4 µM and 62.3 µM,> 88.9 µM and 77.8 µM,> 31.6 µM and 79.4 µM,> 55.7 µM and 96.2 µM,75.3 µM,55.6 µM,55.7 µM and 85.2 µM,> 94.7 µM and 78.3 µM,73.6 µM,19.7 µM,> 44.9 µM,–,> 52.5 µM,> 31.6 µM,> 35.9 µM,–,> 61.5 µM,21 µM,> 55.4 µM
